Data published in patent US20050053631A1, “Method of decreasing sebum production” (Unilever Home & Personal Care USA, Division of Conopco, Inc., priority 2003, published 2005).

System: sebocytes
Experiment: In Vitro Sebocyte Lipogenesis Assay (14-C acetate incorporation into lipids of cultured sebocytes)
Format: cell-based
Conditions: cultured human sebocytes; for % decrease in lipid syn.: 24 h, relative to vehicle control
Experimental: In Vitro Sebocyte Lipogenesis Assay
Human sebaceous glands were isolated from the nose of a person and cultured using submerged tissue culture techniques (Bajor et al, J. Invest. Dermatol., 102:1994, p. 564). These sebocytes accumulate intracellular lipid droplets characteristic of mature human sebum.
Harvested and passaged sebocytes were added to each well of a 96 well tissue culture plate and incubated at 37° C. in-the presence of 7.5% CO2 for 10 days. The growth medium was changed three times per week. On the day of experimentation, the growth medium was removed and the sebocytes washed three times with phosphate buffered saline (PBS). Fresh phenol-free sebocyte growth media in 0.2 ml amount containing various concentrations of active agent speculated to inhibit lipogenesis was added to each well. Triplicate wells were utilized for each sample. […] The cultures were incubated at 37° C./7.5% CO2 for 24 hours. Radioactive label was prepared by adding 100 μl (micro-liters) of 14-C labelled acetic acid (Amersham, sodium salt, specific activity of 56 mCi/mmol) to 10 ml of 50 mM sodium acetate buffer. Then 50 μl was added to each well containing the sebocytes and active agents. The cultures were returned to the incubator for 4 hours. Thereafter the treatments and label were removed and the sebocytes rinsed three times with fresh PBS. Samples containing the 14-C label were extracted and the label counted using a Beckman scintillation counter. Triplicates were performed for each sample.
For each 96 well tissue culture plate, 20 samples could be analyzed. Of these, 1 sample was reserved for media, 1 sample for DMSO or ethanol, and 1 sample for phenol red leaving 17 remaining samples.

Compound | % decrease in lipid syn. (40 uM) | activity in reducing lipid synthesis in sebocytes (in words) | % decrease in lipid syn. (10 uM) | % decrease in lipid syn. (20 uM) | % decrease in lipid syn. (100 uM) | other results
O=C(OC1Cc2c(O)cc(O)cc2OC1c1cc(O)c(O)c(O)c1)c1cc(O)c(O)c(O)c1 (single isomer, unassigned; (-)) [EGCG, (−)-epigallocatechin gallate] | 13.4% | significant activity |  |  |  | % decrease in lipid syn. (8 uM): 8.9%; % decrease in lipid syn. (200 uM): 29.5%; % decrease in lipid syn. (1000 uM): 90%
[2R,3S]-2,3-epoxy4-oxo-7,10-trans, trans-dodecanoic acid amide [Cerulenin] | 99.0% | significant activity | 96.5% |  |  | % decrease in lipid syn. (1.6 uM): 13.6%; % decrease in lipid syn. (5 uM): 52.0%; % decrease in lipid syn. (concentration not printed (between 40 uM and 10 uM in the list)): 96.5%
C=C1CCC(=O)O1 [γ-methylene γ-butyrolactone] |  | ineffective |  |  |  | 
C=C/C(C)=C/[C@@]1(C)SC(=O)C(C)=C1O [Thiolactomycin] |  | not to inhibit |  |  |  | 
C=C1CCOC1=O [α-methylene-γ-butyrolactone] |  | significant activity | 1.3% | 13.2% | 53.3% | % decrease in lipid syn. (500 uM): 100%
Oc1cc(Cl)ccc1Oc1ccc(Cl)cc1Cl [Triclosan] | 90% | significant activity |  | 48.8% | 97.2% | 
